The values below come from patent publication US8637087B2, “Treatment of interstitial cystitis using (6aR, 10aR)-Δ8-tetrahydrocannabinol-11-OIC acids” (JB Therapeutics Inc., priority 2004, dated 2014).

Each structure is given as a SMILES string.

Series [1] can be described thus: Encapsulation into liposomes / formulation stability. The series is classed as physicochemical. How it is done:
(§1) See, FIGS. 9B and 9C, respectively. Each group consisted of a minimum of seven subjects, except for those of a preliminary dose response study, where two subjects were used in each group. The preliminary dose response study indicated an optimal Compound 3a dose of 0.8 mg/ml. See, FIG. 9A. In these experiments, 1.6 mg/ml was highest concentration of Compound 3a encapsulated into liposomes; higher concentrations apparently compromised formulation stability.

In series [2] the test system is bladder overactivity induced by intravesical administration of acetic acid solution. Briefly: Cystometrograms, acute bladder irritation by acetic acid infusion, i.v. drug. The series is classed as in vivo, rats. The note with it: for intercontraction interval (ICI), % of the control value: 0.25% acetic acid infusion, vehicle 42.9%; for pressure threshold (PT), % of the control value: vehicle 87.1%. As for the experimental part: (§2) Cystometrograms (CMGs) were performed under urethane anesthesia (1 g/kg s.c.) using a catheter inserted into the bladder through the bladder dome via a midline abdominal incision. Saline was infused at a rate of 0.04 ml/min to elicit repetitive bladder contractions. Effects of intravenous (i.v.) injection of Compound 3a on bladder overactivity induced by either intravesical administration of acetic acid solution or one day treatment with cyclophosphamide were investigated. […] Thus, these compounds can be effective for the treatment of pain and urinary frequency symptoms in patients with painful bladder syndrome/interstitial cystitis.
Saline infusion was performed for 1 to 2 hours prior to drug (or vehicle) administration and control CMGs were recorded. Compound 3a (aka CT-3 or IP-751, dissolved in 30% Cremophor EL saline solution; three concentrations of 1, 3, and 10 mg/kg) or vehicle was administrated intravenously when starting infusion of acetic acid solution (0.25%) into the bladder.
Changes in cystometric parameters such as intercontraction intervals (ICIs), maximum voiding pressure (MVP), pressure threshold (PT) and baseline pressure (BP) were evaluated before and after i.v. administration of Compound 3a or vehicle.
In the vehicle group, 0.25% acetic acid infusion induced significant bladder overactivity, as evidenced by a reduction in ICIs to 42.9% of the control value.

Series [3] deals with cyclophosphamide-induced bladder overactivity. Description: Cystometrograms, subacute bladder irritation by cyclophosphamide, i.v. drug. The series is classed as in vivo, rats. As for the experimental part:
as §2
One day after intraperitoneal injection of cyclophosphamide (CYP, 150 mg/kg), control CMGs were recorded for 1 to 2 hour prior to i.v. administration of Compound 3a or vehicle. See, example i, above. Following administration of Compound 3a, changes in cystometric parameters such as ICIs, MVP, PT and BP were recorded to evaluate the effects of Compound 3a on cyclophosphamide-induced bladder overactivity.
Bladder overactivity indicated by significant ICI reductions was observed one day after CYP injection.

Series [4] has as its system bladder hyperactivity induced by infusing acetic acid. Briefly: Instillation of liposomal drug 24 h / 48 h before acetic acid-induced bladder hyperactivity (CMG). The class given is in vivo, rats. Particulars: intravesical, two subjects per group. How it is done: Similarly, instillation of liposomal-Compound 3a was first conducted. Then, 24 hours and 48 hours after instillation, under urethane anesthesia, bladder hyperactivity was induced by infusing acetic acid at the concentration of 0.125% and 025%. Prior to acetic acid infusion, baseline CMG was conducted by saline infusion (0.04 ml/min) to measure intercontraction interval (ICI). A percentage reduction in ICI was measured following acetic acid infusion as an indicator of bladder irritation.
as §1

Where [5] appears, read: 10 mg/kg, worded as 'expected to increase'.
The mark [6] stands for this setting: CYP-treated rats, after administration.

With `CCCCCCC(C)(C)c1cc(O)c2c(c1)OC(C)(C)[C@@H]1CC=C(C(=O)O)CC21` (stereo partly drawn) [Compound 3a, (6aR,10aR)-Δ^8-THC-DMH-11-oic Acid], in series [1], the “highest concentration encapsulated into liposomes (higher concentrations compromised formulation stability)” value came out at 1.6 mg/mL. For the same molecule, the “intercontraction interval (ICI), % of the control value” was 45.2 % of the control value in series [2] (1 mg/kg i.v.); 51.1 % of the control value in series [2] (3 mg/kg i.v.); 112.4 % of the control value in series [2] (10 mg/kg i.v., P<0.05, n=6). Besides, the “pressure threshold (PT), % of the control value” is given as 74.1 % of the control value in series [2] (1 mg/kg i.v.), 94.1 % of the control value in series [2] (3 mg/kg i.v.) and 127.2 % of the control value in series [2] (setting [5]). Also, the “acetic acid-induced bladder overactivity” value in series [2] (10 mg/kg i.v., without affecting bladder contractions during voiding) is given as “significantly suppressed”. Also, the “baseline pressure (BP), change” value in series [2] (i.v., acetic acid infusion) is on record as “No significant changes”; in series [3] (setting [6]) it was “No significant changes”. The “maximum voiding pressure (MVP), change” value in series [2] (i.v., acetic acid infusion) was “No significant changes”; in series [3] (setting [6]) it was “No significant changes”. In addition, the CYP-induced bladder overactivity result in series [3] (10 mg/kg i.v., CYP-treated rats) is “significantly suppressed”. For the same molecule, the “intercontraction interval (ICI) after drug” value in series [3] (10 mg/kg i.v., one day after CYP 150 mg/kg i.p., control value 3.65 min, vehicle 3.89 vs. 3.94 min) stood at 5.14 min. Further, the “pressure threshold (PT), change” value in series [3] (setting [6]) is “No significant changes”. For the same molecule, the “optimal dose in preliminary dose response study” value in series [4] turned out to be 0.8 mg/mL.
Consider `CCCCCCC(C)(C)c1cc(OC(C)=O)c2c(c1)OC(C)(C)[C@@H]1CC=C(C(=O)O)C[C@@H]21` [Compound 3c, (6aR,10aR)-Δ^8-THC-DMH-11-oic Acid Acetate], for which the “pressure threshold (PT), % of the control value” in series [2] (setting [5]) is 127.2 % of the control value.
